Test results published in PMC11995216, “End-to-End Backbone Cyclization Enhances Passive Permeability of bRo5 Oligomeric Depsipeptides with Nonlinear Size Dependence” (ACS Medicinal Chemistry Letters, 2025).
Several values for one entry are separate records, joined by “and”; a condition that tells them apart may be missing. Identical values can stand only once. Like-named read-outs stand apart in the source and are kept apart here. Each block holds one molecule with its values, some of them ahead of it.

How the values were obtained:
[1] = PAMPA; ref Schmidt, D., Lynch, J. 2003, Millipore; cited from earlier work
[2] = test system: PAMPA; settings: initial concentration 500 uM
[3] = in vitro; settings: PAMPA, Papp
[4] = test system: PAMPA; settings: Well 3 / [acc]; Well 3; initial concentration 500 uM; UV detection
[5] = test system: PAMPA
[6] = test system: PAMPA; settings: UV detection
[7] = test system: PAMPA; settings: calculated using Supplement Equation 1, UV detection
[8] = PAMPA, 500 uM
[9] = test system: PAMPA; settings: initial concentration 500 uM, UV detection

Compound: CC(C)NC[C@H](O)COc1cccc2ccccc12 [(S)‐Propranolol, reference compound]
Literature Papp [1]: 10.0 x 10‐6

Papp at 500 uM [3]: 14.6 ± 2.38 ×10⁻⁶ cm/s | Papp at 500 uM ([3]; Ave): 14.1 ×10⁻⁶ cm/s | Papp ([5]; Papp (x 10^-6 cm/s) – ELSD Detection / [row 1], ELSD Detection): 14.3 ×10⁻⁶ cm/s | Papp ([5]; Papp (x 10^-6 cm/s) – ELSD Detection / [row 2], ELSD Detection): 13.6 ×10⁻⁶ cm/s | Papp ([5]; Papp (x 10^-6 cm/s) – ELSD Detection / [row 3], ELSD Detection): 13.9 ×10⁻⁶ cm/s | Papp ([5]; Papp (x 10^-6 cm/s) – ELSD Detection / [row 4], ELSD Detection): 15.4 ×10⁻⁶ cm/s | Papp ([5]; Papp (x 10^-6 cm/s) – ELSD Detection / [row 5], ELSD Detection): 15 ×10⁻⁶ cm/s | Papp ([5]; Papp (x 10^-6 cm/s) – ELSD Detection / [row 6], ELSD Detection): 11.7 ×10⁻⁶ cm/s | Papp ([5]; Papp (x 10^-6 cm/s) – ELSD Detection / [row 7], ELSD Detection): 14.1 ×10⁻⁶ cm/s | Papp ([5]; Papp (x 10^-6 cm/s) – ELSD Detection / [row 8], ELSD Detection): 15 ×10⁻⁶ cm/s | Papp ([5]; Papp (x 10^-6 cm/s) – ELSD Detection / [row 9], ELSD Detection): 14.8 ×10⁻⁶ cm/s | Papp ([5]; Papp (x 10^-6 cm/s) – ELSD Detection / [row 10], ELSD Detection): 13.6 ×10⁻⁶ cm/s | Papp ([5]; Papp (x 10^-6 cm/s) – UV Detection / [row 1], UV Detection): 15.1 ×10⁻⁶ cm/s | Papp ([5]; Papp (x 10^-6 cm/s) – UV Detection / [row 2], UV Detection): 14.2 ×10⁻⁶ cm/s | Papp ([5]; Papp (x 10^-6 cm/s) – UV Detection / [row 3], UV Detection): 12.7 ×10⁻⁶ cm/s | Papp ([5]; Papp (x 10^-6 cm/s) – UV Detection / [row 4], UV Detection): 18 ×10⁻⁶ cm/s | Papp ([5]; Papp (x 10^-6 cm/s) – UV Detection / [row 5], UV Detection): 19 ×10⁻⁶ cm/s | Papp ([5]; Papp (x 10^-6 cm/s) – UV Detection / [row 6], UV Detection): 13.8 ×10⁻⁶ cm/s | Papp ([5]; Papp (x 10^-6 cm/s) – UV Detection / [row 7], UV Detection): 11.2 ×10⁻⁶ cm/s | Papp ([5]; Papp (x 10^-6 cm/s) – UV Detection / [row 8], UV Detection): 12.7 ×10⁻⁶ cm/s | Papp ([5]; Papp (x 10^-6 cm/s) – UV Detection / [row 9], UV Detection): 14.3 ×10⁻⁶ cm/s | Papp ([5]; Papp (x 10^-6 cm/s) – UV Detection / [row 10], UV Detection): 15 ×10⁻⁶ cm/s | % recovery ([6]; Well 1 / %R, Well 1): 93% and 89% | % recovery ([6]; Well 2 / %R, Well 2): 93% and 90% | % recovery ([6]; Well 3 / %R, Well 3): 92% and 95% | % recovery ([6]; Well 4 / %R, Well 4): 99% and 95% | % recovery ([6]; Well 5 / %R, Well 5): 99% | %T ([7]; Well 1 / %T, Well 1): 0.91% and 0.93% | %T ([7]; Well 2 / %T, Well 2): 0.86% and 0.92% | %T ([7]; Well 3 / %T, Well 3): 0.89% | %T ([7]; Well 4 / %T, Well 4): 0.92% and 0.96% | %T ([7]; Well 5 / %T, Well 5): 0.93% and 0.99% | Δ % diffusion [8]: ↑22%
Compound: CCCCC[C@@H]1OC(=O)[C@@H](C)N(C)C1=O [Compound C1.1]
Acceptor Concentration ([2]; Acceptor Concentration (uM) – ELSD Detection / [row 1], ELSD Detection): 225 µM | Acceptor Concentration ([2]; Acceptor Concentration (uM) – ELSD Detection / [row 2], ELSD Detection): 205 µM | Acceptor Concentration ([2]; Acceptor Concentration (uM) – ELSD Detection / [row 3], ELSD Detection): 212 µM | Acceptor Concentration ([2]; Acceptor Concentration (uM) – ELSD Detection / [row 4], ELSD Detection): 216 µM | Acceptor Concentration ([2]; Acceptor Concentration (uM) – ELSD Detection / [row 5], ELSD Detection): 207 µM | Acceptor Concentration ([2]; Acceptor Concentration (uM) – ELSD Detection / [row 6], ELSD Detection): 206 µM | Acceptor Concentration ([2]; Acceptor Concentration (uM) – ELSD Detection / [row 7], ELSD Detection): 216 µM | Acceptor Concentration ([2]; Acceptor Concentration (uM) – ELSD Detection / [row 8], ELSD Detection): 218 µM | Acceptor Concentration ([2]; Acceptor Concentration (uM) – ELSD Detection / [row 9], ELSD Detection): 208 µM | Acceptor Concentration ([2]; Acceptor Concentration (uM) – ELSD Detection / [row 10], ELSD Detection): 202 µM | Acceptor Concentration ([2]; Acceptor Concentration (uM) – UV Detection / [row 1], UV Detection): 208 µM | Acceptor Concentration ([2]; Acceptor Concentration (uM) – UV Detection / [row 2], UV Detection): 204 µM | Acceptor Concentration ([2]; Acceptor Concentration (uM) – UV Detection / [row 3], UV Detection): 193 µM | Acceptor Concentration ([2]; Acceptor Concentration (uM) – UV Detection / [row 4], UV Detection): 231 µM | Acceptor Concentration ([2]; Acceptor Concentration (uM) – UV Detection / [row 5], UV Detection): 245 µM | Acceptor Concentration ([2]; Acceptor Concentration (uM) – UV Detection / [row 6], UV Detection): 193 µM | Acceptor Concentration ([2]; Acceptor Concentration (uM) – UV Detection / [row 7], UV Detection): 178 µM | Acceptor Concentration ([2]; Acceptor Concentration (uM) – UV Detection / [row 8], UV Detection): 199 µM | Acceptor Concentration ([2]; Acceptor Concentration (uM) – UV Detection / [row 9], UV Detection): 208 µM | Acceptor Concentration ([2]; Acceptor Concentration (uM) – UV Detection / [row 10], UV Detection): 209 µM | acceptor concentration after incubation [4]: 193 µM | donor concentration after incubation ([9]; Well 1 / [donor], Well 1): 259 µM and 253 µM | donor concentration after incubation ([9]; Well 2 / [donor], Well 2): 262 µM and 271 µM | donor concentration after incubation ([9]; Well 3 / [donor], Well 3): 267 µM and 276 µM | donor concentration after incubation ([9]; Well 4 / [donor], Well 4): 264 µM and 266 µM | donor concentration after incubation ([9]; Well 5 / [donor], Well 5): 250 µM and 261 µM
